Data from paper PMC8303886, “Polyphenylglyoxamide-Based Amphiphilic Small Molecular Peptidomimetics as Antibacterial Agents with Anti-Biofilm Activity” (International Journal of Molecular Sciences, 2021).
Several values for one entry are separate records, joined by “and”; a condition that tells them apart may be missing. Identical values can stand only once. Like-named read-outs stand apart in the source and are kept apart here.

Columns and labels:
[1] = tested on: S. aureus (SA38); assay: Minimum inhibitory concentration (MIC) assay against S. aureus; assay type: cell-based, Staphylococcus aureus; details: Staphylococcus aureus
[2] = tested on: E. coli (K12); assay: Minimum inhibitory concentration (MIC) assay against E. coli; assay type: cell-based; details: Escherichia coli
[3] = tested on: P. aeruginosa (PAO1); assay: Minimum inhibitory concentration (MIC) assay against P. aeruginosa; assay type: cell-based; details: Pseudomonas aeruginosa
[4] = tested on: pre-established S. aureus biofilms; assay: Disruption of pre-established S. aureus biofilms (crystal violet assay); assay type: cell-based, Staphylococcus aureus
Protocol: As bacterial biofilms are one of the major challenges in treating bacterial infection, the ability of the synthesised peptidomimetics to disrupt pre-established biofilms was investigated.
(§1) Bacterial cultures (S. aureus and E. coli) were cultured in MHB at 37 °C with shaking at 120 rpm for 24 h. The resulting bacterial culture was washed twice with MHB with centrifugation after each wash. The bacterial solution was then diluted with fresh MHB to a turbidity of OD660 = 0.1 in MHB (equivalent to 10^8 colony forming unit (CFU)/mL of bacteria), followed by diluting to 10^6 CFU/mL in MHB. A total of 200 µL of the bacterial solution was dispensed to wells in a flat-bottom 96-well plate (Costar). The biofilm was then grown in the plate at 37 °C for 24 h. After incubation, loosely bound cells were washed away with 1× phosphate-buffered saline (PBS, pH 7.4). The biofilms were then supplemented with different concentrations of peptidomimetics dissolved in DMSO and incubated at 37 °C with shaking at 120 rpm for a further 24 h. Biofilms adhered on the plate substratum were quantified, using crystal violet staining as described previously. The experiment was performed in triplicate.

[5] = tested on: S. aureus biofilm formation; assay: Inhibition of S. aureus biofilm formation (crystal violet staining); assay type: cell-based, Staphylococcus aureus
Protocol: In this assay, S. aureus was incubated in the presence of different concentrations of the tested peptidomimetics under a static condition. After overnight incubation, planktonic bacteria were removed, and the remaining biofilms were quantified, using crystal violet staining.
S. aureus was cultured in Muller Hinton broth (MHB; Oxoid) at 37 °C with shaking at 120 rpm for 24 h. The resulting bacterial culture was washed twice with MHB with centrifugation after each wash. The bacterial solution was then diluted with fresh MHB to a turbidity of OD660 = 0.1 in MHB (equivalent to 10^8 colony forming unit (CFU)/mL of bacteria), followed by diluting to 10^6 CFU/mL in MHB. A total of 100 µL of the bacterial solution was added to wells of a 96-well plate (Costar; Sigma-Aldrich, St. Louis, MO, USA) containing 100 µL serially diluted peptidomimetics. After incubation at 37 °C for 24 h, loosely bound cells were washed away with 1× phosphate-buffered saline (PBS, pH 7.4). Biofilms adhered on the plate substratum were quantified, using crystal violet staining as described previously. Untreated bacteria were used as a negative control, where the percentage of biofilm mass reflected 100% biofilm growth. The experiment was performed in triplicate.

[6] = tested on: S. aureus cytoplasmic membrane; assay: Cytoplasmic membrane permeability assay (diSC3-5 dye release); assay type: cell-based, Staphylococcus aureus; details: 1× and 2× MIC, read up to 15 min
Excerpt: This dye readily partitions into and aggregates in bacterial cell membranes, quenching its own fluorescence. However, structural damage to the bacterial cell membrane causes a loss in the membrane potential, which results in the leakage of dye from the bacterial cell membrane into the medium and an increase in fluorescence intensity. By detecting changes in fluorescence intensity, the integrity of the bacterial cytoplasmic membrane can be monitored.
Membrane potential sensitive dye diSC3–5 (3,3′-dipropylthiadicarbocyanine iodide), which penetrates inside bacterial cells depending on the membrane potential gradient of the cytoplasmic membrane, was used to determine the bacterial cytoplasmic membrane permeability following the procedure previously described with slight modification. Bacteria (S. aureus) were incubated in MHB with shaking at 37 °C for 16 h. After incubation, the bacteria were washed with 5 mM HEPES, supplemented with 20 mM glucose at pH 7.2 and diluted in the same buffer to an OD600 0.05–0.06 (equivalent to a final concentration of 10^7 CFU/mL bacteria). The diSC3–5 dye was added at 4 μM to the bacterial suspension. […] Fluorescence due to the release of dye was measured with a FLUOstar Omega (BMG Labtech) microplate reader at 5 min intervals at an excitation wavelength of 621 nm and an emission wavelength of 670 nm.

[7] = tested on: MRC-5 normal human lung fibroblasts; assay: MTT cytotoxicity assay; assay type: cell-based; details: Homo sapiens, MRC5, 72 h, 72 h drug incubation, read-out: IC50 against MRC-5 normal human lung fibroblasts
Protocol: The IC50 values of the tested peptidomimetics were determined from a dose-response curve. […] The therapeutic indices for each tested peptidomimetic against Gram-positive S. aureus and Gram-negative E. coli were calculated by dividing the IC50 value against human cells by the corresponding MIC value (Table 2).
The toxicity of the peptidomimetics against normal human lung fibroblasts MRC-5 cells was measured, using an MTT (3-(4,5-dimethylthiazol-2-yl)-2,5-diphenyltetrazolium bromide) (Sigma Aldrich, St. Louis, MO, USA) colorimetric assay. The cells were cultured in minimal essential medium (MEM, Invitrogen) containing 10% foetal bovine serum (FBS). The cells were maintained at 37 °C in 5% CO2 as an adherent monolayer and was passaged upon reaching confluence by standard cell culture techniques. MRC-5 cells were seeded at 5000 cells/well in 96-well plates to ensure full confluence (quiescence) and left overnight to adhere to the plate wells. The adherent cells were treated with 1–500 μM of compounds by dissolving in DMSO and serially diluting with media. TY-01 was used as the positive control. The final concentration of DMSO was 0.5% (v/v). After the 72 h drug incubation, […] stock MTT solution (5 mg/mL) was added, and the cells were incubated for another 3.5–4 h. The MTT solution containing media was carefully aspirated without displacing the purple crystals from the bottom, and […] acid-isopropanol was added to all wells and mixed slowly by shaking with an orbital shaker to dissolve the dark blue crystals. […] The determination of IC50 values was performed using GraphPad Prism 7 (GraphPad, San Diego, CA, USA). Each experiment was performed in triplicate and was repeated in three independent experiments.

[8] = Haemolysis assay; assay type: cell-based; details: washed human red blood cells
Protocol: A total of 20 mL of human blood collected in EDTA coated tubes was transferred into a 50 mL centrifuge tube and centrifuged at 500× g (700) for 5 min. The supernatant plasma was discarded and an equal volume of 1× PBS was added. The washing was repeated five times with cells mixed by inversion. The washed pallet was then resuspended in 1:10 with PBS to yield an RBC concentration of ~5 × 10^8 RBC/mL. The peptidomimetics were serially diluted with PBS, with final concentrations ranging from 8 to 500 µM. Milli-Q water and 1× PBS were used as positive and negative controls. The cells were then incubated at 37 °C for 3 h. Following incubation, the suspension was centrifuged at 1100× g for 5 min. The final optical density was measured at 540 nm. The percentage of haemolysis was calculated, using the following equation. % haemolysis=(absorbance of test sample−absorbance of diluent)/(absorbance of positive control−absorbance of diluent)×100%

[9] = tested on: pre-established E. coli biofilms; assay: Disruption of pre-established E. coli biofilms (crystal violet assay); assay type: cell-based, Escherichia coli
Protocol: as §1

[10] = tested on: pre-established S. aureus biofilms; design: method as in PMID 27405275; details: 4× MIC; cited from earlier work
[11] = S. aureus SA38, read-out: MIC S. aureus
[12] = in trypticase soy broth (TSB), Mueller Hinton broth (MHB) or cationic adjusted MHB, read-out: MIC S. aureus in different growth media
[13] = highest concentration tested 250 μM
[14] = 4× MIC, 24 h treatment (32 μM for 17c)

With `CCCCCCCCS(=O)(=O)Nc1ccc(-c2ccc(-c3ccccc3)cc2)cc1C(=O)C(=O)NCCC[N+](C)(C)C.[I-]` [Compound 16d, N,N,N-Trimethyl-3-(2-(4-(octylsulfonamido)-[1,1′:4′,1″-terphenyl]-3-yl)-2-oxoacetamido)propan-1-aminium iodide] the MIC [1, 11] was 4 µM and 2.9 µg/mL, the MIC [1, 12] was 4 µM and 2.9 µg/mL and the MIC [2] was > 250 µM and > 180 µg/mL. For the same compound, the MIC [3] was over 180 µg/mL, the MIC [3, 13] was over 250 µM and the “disruption of pre-established S. aureus biofilms” value ([4]; 1× MIC, 24 h treatment) was “no antibiofilm activity”. The “inhibition of S. aureus biofilm formation” value (“inhibition” below) ([5]; 0.5× MIC (sub-MIC)) was 35%, the “S. aureus cytoplasmic membrane disruption (increase in fluorescence intensity)” value [6] was “least active compound” and the IC50 [7] was 53.7 µM and 38.6 µg/mL. For the same compound, the hemolysis at 3 h, 32 µM [8] was 11%.

In the case of `CCCCCCCCCCCCS(=O)(=O)Nc1ccc(-c2ccccc2)cc1C(=O)C(=O)NCCC[N+](C)(C)C.[I-]` [Compound 17c, 3-(2-(4-(Dodecylsulfonamido)-[1,1′-biphenyl]-3-yl)-2-oxoacetamido)-N,N,N-trimethylpropan-1-aminium iodide], the MIC [1, 11] is reported as 8 µM and 5.6 µg/mL, the MIC [1, 12] is reported as 8 µM and 5.6 µg/mL and the MIC [2] is reported as 32 µM. The MIC [3] was over 175 µg/mL, the MIC [3, 13] was over 250 µM and the “disruption of pre-established S. aureus biofilms” value ([4]; 1× MIC, 24 h treatment) was 20–36%. The “disruption of pre-established S. aureus biofilms” value [4, 14] was 44%, the “disruption of pre-established E. coli biofilms” value ([9]; 2× MIC, 24 h treatment (64 μM for 17c)) was 28% and the “inhibition” value ([5]; 0.5× MIC (sub-MIC)) was 56%. The “inhibition” value ([5]; 2× MIC (16 μM for 17c)) was 70%, the “inhibition” value ([5]; 4× MIC) was 65% and the IC50 [7] was 57.5 µM and 40.2 µg/mL. For the same compound, the hemolysis at 3 h, 32 µM [8] was 16%.

In the case of `CCCCCCCCCCCCS(=O)(=O)Nc1ccccc1C(=O)C(=O)NCCCNC(=N)N.Cl` [Compound 34a, 2-(2-(Dodecylsulfonamido)phenyl)-N-(3-guanidinopropyl)-2-oxoacetamide hydrochloride], the MIC [1, 11] is reported as 8 µM and 4.3 µg/mL, the MIC [2] is reported as 16 µM and 8.5 µg/mL and the MIC [3] is reported as over 133 µg/mL. For the same compound, the MIC [3, 13] was over 250 µM, the “disruption of pre-established S. aureus biofilms” value ([4]; 1× MIC, 24 h treatment) was 20–36% and the “disruption of pre-established S. aureus biofilms” value [4, 14] was 42%. The “disruption of pre-established E. coli biofilms” value ([9]; 1× and 2× MIC, 24 h treatment) was “unable to disrupt any pre-established E. coli biofilms”, the “S. aureus cytoplasmic membrane disruption (increase in fluorescence intensity)” value [6] was “most active compound at 2× MIC” and the IC50 [7] was 27.2 µM and 14.5 µg/mL. The melting point was 70 to 72.8 °C.

In the case of “LL-37: cathelicidin (LL-37), antimicrobial peptide in phase IIb clinical trials for the treatment of chronic leg ulcers (LLGDFFRKSKEKIGKEFKRIVQRIKDFLRNLVPRTES; Antibacterial peptide LL-37; UniProt P49913 134-170, looked up)”, the “disruption of pre-established S. aureus biofilms” value [10] is listed as “about 40%”.
